# Literature values in US20120288569A1 (priority 2003, published 2012).
# Tests used:
# [1] = tested on: calcification in aortas and kidneys of rats; conditions: rats treated with large amount of vitamin D3
smiles,measurement,setting,value
"O=P(O)(O)OP(=O)(O)O [PPi, pyrophosphate]",uptake by the apatite crystals,PPi at 2 μm/L concentration,rapidly and almost completely taken up
same,"concentration that binds strongly to crystals of hydroxyapatite, inhibiting further precipitation of calcium phosphate",in vitro,≥ 0.1 µM
same,effect on calcification in aortas and kidneys,[1],inhibits calcification
